Assay results taken from patent publication US20120321571A1, “PARABEN COMPOSITIONS” (ANTERIOS, INC., priority 2011, published 2012).

Tested on: axillary sweating
Assay: Clinical study of the effect of Propylparaben on axillary sweating (gravimetric sweat measurement)
Type: in vivo, human

With `CCCOC(=O)c1ccc(O)cc1` [Propylparaben] the “greater effectiveness in reducing sweat production than placebo (by responder assessment)” value (based on percent of subjects with at least 30% reduction versus Baseline, versus placebo (water)) was 245%, the “conclusion on activity in reducing sweat production” value (overall conclusion of the clinical study) was “biologically active in reducing sweat production” and the “reduction in sweat production (average), gravimetric sweat measurement” value (subjects with moderate to severe primary axillary hyperhidrosis, single topical treatment, 0.20 mg per axilla, two weeks after treatment, 5 minute collection) was 177 mg. The “percent of subjects with at least a 30% reduction in sweat production compared to Baseline” value (two weeks after single topical treatment, 0.20 mg per axilla, gravimetric sweat measurement) was 70% and the “greater reduction in sweat production than the control (placebo) group” value (two weeks after single topical treatment, 0.20 mg per axilla, versus placebo (water)) was 337%.
